The record followed here is ChEMBL document CHEMBL5550094, “Design, synthesis and anti-necroptosis activity of fused heterocyclic MLKL inhibitors” (Bioorg Med Chem, 2024).

pEC50, pIC50, pKd: −log10 of the molar value. Active and inactive are the calls of the source. The rule behind the calls is not given here.

For assay [1], the system named is HT-29. Briefly: Anti-necroptosis activity against TNFalpha/Smac mimetic/Z-VAD-fmk-induced human HT-29 cells by CellTiter luminescence cell viability assay. It is filed as functional, cell-based.
Assay [2] concerns HT-29. Briefly: Anti-necroptosis activity against TNFalpha/Smac mimetic/Z-VAD-fmk-induced human HT-29 cells measured after 24 hrs by CellTiter-Glo assay. It is filed as functional, cell-based. To be noted: HT-29, 24 h. (In general: Cellular ATP, detected with luciferase, serves as a proxy for viable cell number.)
Assay [3] deals with T1, Mixed lineage kinase domain-like protein (Homo sapiens) (UniProt Q8NB16).
T1 sequence (whole entry): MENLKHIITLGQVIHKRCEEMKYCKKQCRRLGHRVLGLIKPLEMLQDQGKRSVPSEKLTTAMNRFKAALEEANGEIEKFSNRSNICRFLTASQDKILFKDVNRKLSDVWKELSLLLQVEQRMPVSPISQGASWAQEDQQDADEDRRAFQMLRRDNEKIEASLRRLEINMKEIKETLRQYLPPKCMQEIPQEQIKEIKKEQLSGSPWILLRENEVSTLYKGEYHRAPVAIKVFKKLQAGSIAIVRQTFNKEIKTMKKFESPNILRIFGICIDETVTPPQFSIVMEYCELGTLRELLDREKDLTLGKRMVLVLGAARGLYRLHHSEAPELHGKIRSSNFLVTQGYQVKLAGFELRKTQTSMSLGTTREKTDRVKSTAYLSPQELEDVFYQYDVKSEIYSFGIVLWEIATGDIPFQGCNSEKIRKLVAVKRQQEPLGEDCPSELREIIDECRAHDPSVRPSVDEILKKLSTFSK
Briefly: Inhibition of MLKL phosphorylation in TNFalpha/Smac mimetic/Z-VAD-fmk-induced human HT-29 cells at 2 uM measured after 6 hrs by Western blot analysis. It counts as cell-based.

For assay [4], the target named is T2, Receptor-interacting serine/threonine-protein kinase 3 (Homo sapiens, UniProt Q9Y572). Briefly: Inhibition of RIPK3 phosphorylation in TNFalpha/Smac mimetic/Z-VAD-fmk-induced human HT-29 cells at 2 uM measured after 6 hrs by Western blot analysis. It is filed as cell-based. For orientation: In western blotting, separated proteins are transferred to a membrane and probed.
Target sequence in this assay (Q9Y572 whole entry, looked up): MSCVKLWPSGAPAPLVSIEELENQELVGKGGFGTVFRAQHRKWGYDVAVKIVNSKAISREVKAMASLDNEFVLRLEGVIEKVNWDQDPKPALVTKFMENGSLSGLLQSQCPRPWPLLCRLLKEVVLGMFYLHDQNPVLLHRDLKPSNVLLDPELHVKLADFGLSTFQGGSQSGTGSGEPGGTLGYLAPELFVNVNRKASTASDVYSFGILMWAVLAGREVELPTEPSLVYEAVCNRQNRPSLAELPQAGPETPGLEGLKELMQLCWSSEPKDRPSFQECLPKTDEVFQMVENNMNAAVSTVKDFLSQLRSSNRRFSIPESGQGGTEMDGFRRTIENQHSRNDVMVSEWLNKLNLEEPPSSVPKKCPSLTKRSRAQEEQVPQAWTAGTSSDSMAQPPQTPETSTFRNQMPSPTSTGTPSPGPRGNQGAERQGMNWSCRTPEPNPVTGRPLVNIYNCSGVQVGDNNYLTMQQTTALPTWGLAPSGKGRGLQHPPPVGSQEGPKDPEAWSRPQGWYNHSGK

Assay [5] addresses T1, Mixed lineage kinase domain-like protein (Homo sapiens). The assay can be described thus: Covalent inhibition of MLKL in TNFalpha/Smac mimetic/Z-VAD-fmk-induced human HT-29 cells assessed as inhibition of necroptosis pretreated for 3 hrs followed by washout and further treated with TNFalpha/Smac mimetic/Z-VAD-fmk and measured after 8 hrs by CellTiter luminescence cell viability assay. It counts as cell-based.

Assay [6] shares this target. The assay can be described thus: Covalent inhibition of MLKL in TNFalpha/Smac mimetic/Z-VAD-fmk-induced human HT-29 cells assessed as inhibition of necroptosis pretreated for 5 mins followed by washout and further treated with TNFalpha/Smac mimetic/Z-VAD-fmk and measured after 8 hrs by CellTiter luminescence cell viability assay. It counts as cell-based.
The target is the same in assay [7]. The assay can be described thus: Covalent inhibition of MLKL in TNFalpha/Smac mimetic/Z-VAD-fmk-induced human HT-29 cells assessed as inhibition of necroptosis pretreated for 1 hrs followed by washout and further treated with TNFalpha/Smac mimetic/Z-VAD-fmk and measured after 8 hrs by CellTiter luminescence cell viability assay. It counts as cell-based.
Another assay concerns L929. The assay can be described thus: Anti-necroptosis activity against TNF-alpha/Z-VAD-FMK induced mouse L929 cells at 20 uM. It is filed as functional, cell-based.
Assay [8] addresses T2, Receptor-interacting serine/threonine-protein kinase 3. Briefly: Binding affinity to RIPK3 (unknown origin) assessed as dissociation constant by displacement assay.
Target sequence in this assay (Q9Y572 whole entry): as the sequence (Q9Y572 whole entry, looked up) above
Assay [9] in a line: Anti-necroptosis activity against TNF-alpha induced human Jurkat-FADD-/- cells pretreated for 30 mins followed by TNF-alpha addition and further incubated overnight by CellTiter-Glo 2.0 assay. It is filed as functional, cell-based.
For assay [10], the target named is T3, Receptor-interacting serine/threonine-protein kinase 1 (Homo sapiens, UniProt Q13546).
T3 sequence (Q13546 whole entry): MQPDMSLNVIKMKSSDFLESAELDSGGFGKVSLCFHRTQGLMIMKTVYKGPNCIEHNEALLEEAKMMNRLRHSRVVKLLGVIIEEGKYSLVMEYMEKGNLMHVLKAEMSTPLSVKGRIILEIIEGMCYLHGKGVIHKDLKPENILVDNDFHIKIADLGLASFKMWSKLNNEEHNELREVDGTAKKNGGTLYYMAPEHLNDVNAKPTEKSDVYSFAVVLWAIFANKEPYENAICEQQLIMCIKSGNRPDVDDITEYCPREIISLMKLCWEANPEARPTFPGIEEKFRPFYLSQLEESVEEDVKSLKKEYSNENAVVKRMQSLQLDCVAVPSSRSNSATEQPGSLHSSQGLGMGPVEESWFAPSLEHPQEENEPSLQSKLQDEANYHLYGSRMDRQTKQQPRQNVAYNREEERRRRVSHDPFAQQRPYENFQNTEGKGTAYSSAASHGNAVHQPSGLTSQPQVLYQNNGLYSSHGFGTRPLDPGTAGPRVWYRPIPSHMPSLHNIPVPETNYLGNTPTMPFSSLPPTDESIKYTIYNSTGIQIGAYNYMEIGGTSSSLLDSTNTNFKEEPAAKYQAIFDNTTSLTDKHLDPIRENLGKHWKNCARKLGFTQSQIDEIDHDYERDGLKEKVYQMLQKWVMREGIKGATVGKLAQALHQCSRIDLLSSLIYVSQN
Briefly: Binding affinity to RIPK1 (unknown origin) assessed as dissociation constant by displacement assay.

As usually defined, the pEC50 is the negative decadic logarithm of the EC50, by convention in mol/L. In the case of `O=C(/C=C/c1ccc([N+](=O)[O-])s1)Nc1ccc(S(=O)(=O)Nc2nc3ccc(F)cc3s2)cc1`, the pEC50 in the assay on HT-29 [1] is 5.29. Consider `O=C(/C=C/c1ccc([N+](=O)[O-])s1)Nc1ccc(S(=O)(=O)Nc2ccnc3ccccc23)cc1`, for which the pEC50 in the assay on HT-29 [1] is 6.24. For `COc1ccc2nc(NS(=O)(=O)c3ccc(NC(=O)/C=C/c4ccc([N+](=O)[O-])s4)cc3)sc2c1`, the pEC50 in the assay on HT-29 [1] is 5.29. The compound `O=C(/C=C/c1ccc([N+](=O)[O-])s1)Nc1ccc(S(=O)(=O)Nc2nccc3ccccc23)cc1` showed a pEC50 in the assay with HT-29 [1] of 6.13.

The compound `O=C(/C=C/c1ccc([N+](=O)[O-])s1)Nc1ccc(S(=O)(=O)Nc2nc3ccc(OC(F)(F)F)cc3s2)cc1` gave a pEC50 in the assay on HT-29 [1] of less than 4.70.

The compound `O=C(/C=C/c1ccc([N+](=O)[O-])s1)Nc1ccc(S(=O)(=O)Nc2cnc3ccccc3c2)cc1` had a pEC50 with HT-29 [1] of 6.39. Still for that read-out and setting: under `O=C(/C=C/c1ccc([N+](=O)[O-])s1)Nc1ccc(S(=O)(=O)Nc2nc3ccccc3o2)cc1` stands 5.81; under `COc1nccnc1NS(=O)(=O)c1ccc(NC(=O)/C=C/c2ccc([N+](=O)[O-])o2)cc1`, 5.19. Same read-out and setting: for `O=C(/C=C/c1ccc([N+](=O)[O-])s1)Nc1ccc(S(=O)(=O)Nc2ccc3nccnc3c2)cc1` the value was 6.32; for `O=C(/C=C/c1ccc([N+](=O)[O-])s1)Nc1ccc(S(=O)(=O)Nc2nc3cc(Br)ccc3s2)cc1`, less than 4.70. Consider `Cn1c(NS(=O)(=O)c2ccc(NC(=O)/C=C/c3ccc([N+](=O)[O-])s3)cc2)nc2ccccc21`, for which the pEC50 in the assay on HT-29 [1] was 6.32. On the same count and under the same terms, for `O=C(/C=C/c1ccc([N+](=O)[O-])s1)Nc1ccc(S(=O)(=O)Nc2nc3ccc(C(F)(F)F)cc3s2)cc1` the value was less than 4.70. The compound `O=C(/C=C/c1ccc([N+](=O)[O-])s1)Nc1ccc(S(=O)(=O)Nc2ccc3ccccc3n2)cc1` had a pEC50 in the assay with HT-29 [1] of 6.48. Regarding `COc1nccnc1NS(=O)(=O)c1ccc(NC(=O)CCc2ccc([N+](=O)[O-])s2)cc1`, the pEC50 in the assay with HT-29 [2] was less than 4.70.

For the compound `COc1cccc2sc(NS(=O)(=O)c3ccc(NC(=O)/C=C/c4ccc([N+](=O)[O-])s4)cc3)nc12`, the inhibition entry in [3], in assay [4] and in assay [6] was “inactive” each time. Further, the inhibition entry in assay [5] and in assay [7] was “Active” throughout. The compound also showed a pEC50 in the assay on HT-29 [1] of 6.22. The outcome in the assay with L929 was inactive. `O=C(/C=C/c1ccc([N+](=O)[O-])s1)Nc1ccc(S(=O)(=O)Nc2nc3c(Cl)cccc3s2)cc1` showed a pEC50 with HT-29 [1] of 5.21. As for `O=C(/C=C/c1ccc([N+](=O)[O-])s1)Nc1ccc(S(=O)(=O)Nc2cc3ccccc3cn2)cc1`, the pEC50 in the assay on HT-29 [1] was 6.21. Against the preceding compound, the pEC50 is 1.00 log units higher. In the case of `Cc1cccc2sc(NS(=O)(=O)c3ccc(NC(=O)/C=C/c4ccc([N+](=O)[O-])s4)cc3)nc12`, the pEC50 in the assay on HT-29 [1] was 5.56. Against the preceding compound, the pEC50 is 0.65 log units lower.

In the assay with HT-29 [2], `COc1nccnc1NS(=O)(=O)c1ccc(NC(=O)/C=C/c2cccs2)cc1` showed a pEC50 of less than 4.70. Compound `O=C(/C=C/c1ccc([N+](=O)[O-])s1)Nc1ccc(S(=O)(=O)Nc2ncnc3ccccc23)cc1` had a pEC50 with HT-29 [1] of 6.28. Consider `O=C(/C=C/c1ccc([N+](=O)[O-])s1)Nc1ccc(S(=O)(=O)Nc2ncc3ccccc3n2)cc1`, for which the inhibition result in assay [3], in [4] and in assay [6] was “inactive” each time. The inhibition result in [5] and in assay [7] was “Active” throughout. The pEC50 in the assay on HT-29 [1] was 6.83. Further, the result in the assay with L929 was inactive. With `O=C(/C=C/c1ccc([N+](=O)[O-])s1)Nc1ccc(S(=O)(=O)Nc2nc3c(F)cccc3s2)cc1`, the pEC50 in the assay on HT-29 [1] was 5.13.

For `O=C(/C=C/c1ccc([N+](=O)[O-])s1)Nc1ccc(S(=O)(=O)Nc2nc3cc(Cl)ccc3s2)cc1`, the pEC50 with HT-29 [1] was 4.79. On to `COc1ccc2sc(NS(=O)(=O)c3ccc(NC(=O)/C=C/c4ccc([N+](=O)[O-])s4)cc3)nc2c1`, for which the pEC50 in the assay with HT-29 [1] is 5.15. As for `O=C(/C=C/c1ccc([N+](=O)[O-])s1)Nc1ccc(S(=O)(=O)Nc2nc3c(Br)cccc3s2)cc1`, in the assay on HT-29 [1], the pEC50 is 5.13. This pEC50 and that of the compound before are within 0.2 log units of each other. With `COc1nccnc1NS(=O)(=O)c1ccc(NC(=O)/C=C/c2ccc([N+](=O)[O-])s2)cc1`, the pEC50 in the assay on HT-29 [2] is 6.35. For the same compound, the inhibition result in assay [3] and in assay [4] was “inactive” throughout. In turn, `O=C(/C=C/c1ccc([N+](=O)[O-])s1)Nc1ccc(S(=O)(=O)Nc2cnc3ccccc3n2)cc1` gave a pEC50 in the assay with HT-29 [1] of 6.42. `COc1nccnc1NS(=O)(=O)c1ccc(NC(=O)CCc2cccs2)cc1` had a pEC50 in the assay on HT-29 [2] of less than 4.70.

Compound `O=C(/C=C/c1ccc([N+](=O)[O-])s1)Nc1ccc(S(=O)(=O)Nc2nc3ccc(Br)cc3s2)cc1` had a pEC50 in the assay on HT-29 [1] of less than 4.70. The pKd is the negative decadic logarithm of the Kd, by convention in mol/L. For orientation: pIC50 means −log10 of the IC50, conventionally taken in molar units. Regarding `Nc1nccnc1C(=O)O[C@@H](C(=O)Nc1ccc(F)cc1)c1ccccc1`, the pKd in assay [8] and in assay [10] was less than 4.52 in each case. For the same compound, the pIC50 in [9] is less than 4.40. The compound `Cc1ccc2sc(NS(=O)(=O)c3ccc(NC(=O)/C=C/c4ccc([N+](=O)[O-])s4)cc3)nc2c1` showed a pEC50 with HT-29 [1] of 5.59. For the compound `O=C(/C=C/c1ccc([N+](=O)[O-])s1)Nc1ccc(S(=O)(=O)Nc2nc3cc(F)ccc3s2)cc1`, the pEC50 with HT-29 [1] is 5.17.

As for `O=C(/C=C/c1ccc([N+](=O)[O-])s1)Nc1ccc(S(=O)(=O)Nc2nc3ccc(Cl)cc3s2)cc1`, the pEC50 in the assay with HT-29 [1] is 4.86. This pEC50 lies 0.31 log units lower than the previous one. Turning to `Cc1ccc2nc(NS(=O)(=O)c3ccc(NC(=O)/C=C/c4ccc([N+](=O)[O-])s4)cc3)sc2c1`, the pEC50 in the assay on HT-29 [1] is 5.54. `O=C(/C=C/c1ccc([N+](=O)[O-])s1)Nc1ccc(S(=O)(=O)Nc2cncc3ccccc23)cc1`: in the assay on HT-29 [1], the pEC50 is 6.37.

For `C[C@@H](Oc1cc(-c2cnn(C3CCNCC3)c2)cnc1N)c1c(Cl)ccc(F)c1Cl` [CRIZOTINIB], the pIC50 in assay [9] is less than 4.40. `O=C(/C=C/c1ccc([N+](=O)[O-])s1)Nc1ccc(S(=O)(=O)Nc2nc3ccccc3s2)cc1` had a pEC50 in the assay with HT-29 [1] of 5.82.
